Experimental data as given in US20110269825A1, “Modified Thromboxane A2 Receptor Promoter Sequence” (priority 2008, published 2011).

Key:
WT1 = test: Immunoblot analysis of WT1 expression in HEL cells; assay type: cell-based, human; conditions: PMA 100 nM over 48 h
Procedure: The expression of WT1, Sp1, Egr1, NF-E2, GATA-1 and Ets-1 proteins in HEL cells was confirmed by western blot analysis. Briefly, whole cell protein was resolved by SDS-PAGE (10% acrylamide gels) and transferred to polyvinylidene difluoride (PVDF) membrane according to standard methodology. Membranes were screened using anti-WT1, anti-NF-E2, anti-Sp1, anti-Egr1, anti-GATA-1 or anti-Ets-1 sera in 5% non fat dried milk in 1×TBS (0.01 M Tris/HCl, 0.1 M NaCl) for 2 h at room temperature followed by washing and screening using goat anti-rabbit horseradish peroxidase (sc-2204) followed by chemiluminescence detection, as described by the supplier (Roche Applied Science). For PMA studies, HEL cells were pre-incubated for the indicated amount of time with 100 nM PMA, with 10 μM PD98059, with 100 nM PMA plus 10 μM PD98059 or, as a control, with vehicle [0.1% (v/v) DMSO]. Whole cell protein (60 μg per lane) was resolved by SDS-PAGE (10% acrylamide gels) and transferred to polyvinylidene difluoride (PVDF) membrane according to standard methodology. […] Cells were harvested 48 hr post-transfection and aliquots ([…]) were analysed by SDS-PAGE/western blot analysis. As a positive control for hTF expression, […] of a commercial control Tissue-Factor Biomass was also analysed. […]

[1] = test system: −8460 to −8006 region of Prm1; test: ChIP analysis of WT1, Egr1 and Sp1 binding to Prm1 in PMA-treated HEL cells; assay type: cell-based, human; conditions: PMA 100 nM for 5, 8 or 16 h
Procedure: Chromatin immunoprecipitation (ChIP) assays were performed essentially as described (Koch et al., 2007). Specifically, HEL cells (1×10^8) were pelleted, washed in ice-cold PBS and resuspended in serum-free RPMI 1640. Formaldehyde-cross linked chromatin was sonicated, as described (Koch et al., 2007), to generate fragments 500 bp to 1000 bp in length. Prior to immunoprecipitation (IP), chromatin was incubated with 60 μg normal rabbit IgG overnight at 4° C. on a rotisserie, after which 250 μl of salmon sperm DNA/protein A agarose beads (Millipore) were added and chromatin was precleared for 3 h at 4° C. with rotation. Thereafter, anti-WT1, anti-NF-E2, anti-Sp1, anti-Egr1, anti-GATA-1, anti-Ets-1 ([…]), normal rabbit IgG (10 μg), or a “no antibody” control were used for immunoprecipitation. Following elution, cross-links were reversed by incubation at 65° C. overnight followed by protease digestion with proteinase K (Sigma; 9 μl of 10 mg/ml) at 45° C. for 7 h. After precipitation, samples were resuspended in 50 μl dH2O. PCR analysis was carried out using 2-3 μl of ChIP sample as template or, as a positive control, with an equivalent volume of a 1:20 dilution of the input chromatin DNA. The identities of the primers used for the ChIP PCR reactions, as well as their sequences and corresponding nucleotides within Prm1 are listed below. […]

CCCCCCCCCCCCCC(=O)O[C@@H]1[C@@H](C)[C@@]2(O)[C@@H](C=C(CO)C[C@]3(O)C(=O)C(C)=C[C@@H]23)[C@@H]2C(C)(C)[C@]12OC(C)=O [PMA, phorbol 12-myristate 13-acetate]
WT1 protein expression (WT1): did not substantially alter the expression of the WT1 doublet | Binding of WT1, Egr1 and Sp1 to Prm1 chromatin [1]: substantial changes in the pattern of binding of these factors to distal upstream GC-enriched elements
